Experimental data from US20260226048A1, “MULTI-CYCLIC IRAK AND FLT3 INHIBITING COMPOUNDS AND USES THEREOF” (CHILDREN'S HOSPITAL MEDICAL CENTER, priority 2023, published 2026).
pIC50: −log10 of the molar value.

Legend:
[1] = biological target: T1, IRAK1 (Homo sapiens, UniProt P51617); test: RBC HotSpot Kinase Assay, IRAK1; format: biochemical; conditions: isolated kinase enzyme, 33P-ATP, P81 filter-binding
T1 construct: purchased Reaction Biology (RBC HotSpot)
Outline: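 Radiometric HotSpot assay of catalytic activity with isolated recombinant kinase, possibly truncated or kinase domain only. Buffer: 20 mM Hepes pH 7.5, 10 mM MgCl2, 1 mM EGTA, 0.01% Brij35, 0.02 mg/ml BSA, 0.1 mM Na3VO4, 2 mM DTT, 1% DMSO, with cofactors specific to each kinase.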

[2] = test system: MOLM14 F691L cells; test: MOLM14 F691L cell viability assay (Cell Titer Glo); format: cell-based; conditions: Homo sapiens, MOLM-14; cell viability, Cell Titer Glo, 48 hours; read-out: MOLM14 F691L IC50
Outline: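 MOLM14 cells with FLT3 D835Y or F691L kinase-domain resistance mutations seeded at 1000 cells/well and exposed to compound for 48 h under standard incubator conditions. Viability read by CellTiter-Glo luminescence after 15 min at room temperature.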

[3] = test system: THP1 cells (FLT3 WT); test: Combination drug screening with venetoclax in THP1 cells (Cell Titre Glo, 10 × 10); format: cell-based; conditions: for Excess HSA (sum excess HSA score, combination with venetoclax): 10 × 10 dataset, Cell Titre Glo at 48 hours, optimal of 4 dose combinations, negative = synergy; for Concentration needed to decrease the 312.5 nM Venetoclax response to <20%: Cell Titer Glo at 48 hours
Experimental: (§1) These assays were performed using the Cell Titre Glo assay, measured at 48 hours.
(§2) A smaller concentration indicates higher potency to synergize with Venetoclax.

[4] = test system: MOLM14-D835Y cells (FLT3-ITD (D835Y) mutant); test: Combination drug screening with venetoclax in MOLM14 (D835Y) cells (Cell Titre Glo, 10 × 10); format: cell-based; set-up: Excess HSA (sum excess HSA score, combination with venetoclax): scale not given here; conditions: for Excess HSA (sum excess HSA score, combination with venetoclax): 10 × 10 dataset, Cell Titre Glo at 48 hours, optimal of 4 dose combinations, negative = synergy; for Concentration of a compound of the disclosure, or gilteritinib, needed to decrease the 62.5 nM Ven response to <10% in MOLM14(D835Y) cells: combination with 62.5 nM Venetoclax, Cell Titer Glo, 48 hours, response <10%
Experimental: as §1, §2

[5] = biological target: T2, IRAK4 (Homo sapiens, UniProt Q9NWZ3); test: RBC HotSpot Kinase Assay, IRAK4; format: biochemical; set-up: purchased Reaction Biology (RBC HotSpot); conditions: isolated kinase enzyme, 33P-ATP, P81 filter-binding
T2 sequence (Q9NWZ3 1-460): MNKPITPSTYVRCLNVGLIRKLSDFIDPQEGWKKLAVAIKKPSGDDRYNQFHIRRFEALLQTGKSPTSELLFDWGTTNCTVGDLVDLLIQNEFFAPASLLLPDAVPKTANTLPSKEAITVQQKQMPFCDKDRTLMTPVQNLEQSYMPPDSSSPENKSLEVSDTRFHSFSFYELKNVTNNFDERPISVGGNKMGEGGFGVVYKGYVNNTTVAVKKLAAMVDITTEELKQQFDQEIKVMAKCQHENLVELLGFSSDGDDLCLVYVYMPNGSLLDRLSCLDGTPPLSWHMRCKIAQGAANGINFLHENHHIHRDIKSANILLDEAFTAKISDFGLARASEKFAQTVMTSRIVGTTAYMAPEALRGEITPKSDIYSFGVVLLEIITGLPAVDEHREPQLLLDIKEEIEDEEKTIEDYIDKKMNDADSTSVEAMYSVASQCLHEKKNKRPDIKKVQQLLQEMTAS
Outline: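 Radiometric filter-binding activity assay with isolated recombinant kinase (construct may be truncated or catalytic domain only) in 20 mM Hepes pH 7.5, 10 mM MgCl2, 1 mM EGTA, 2 mM DTT, 1% DMSO. Compound preincubated 20 min with kinase/substrate; reaction started with 33P-ATP, run 2 h at room temperature.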

T1 sequence (P51617 whole entry): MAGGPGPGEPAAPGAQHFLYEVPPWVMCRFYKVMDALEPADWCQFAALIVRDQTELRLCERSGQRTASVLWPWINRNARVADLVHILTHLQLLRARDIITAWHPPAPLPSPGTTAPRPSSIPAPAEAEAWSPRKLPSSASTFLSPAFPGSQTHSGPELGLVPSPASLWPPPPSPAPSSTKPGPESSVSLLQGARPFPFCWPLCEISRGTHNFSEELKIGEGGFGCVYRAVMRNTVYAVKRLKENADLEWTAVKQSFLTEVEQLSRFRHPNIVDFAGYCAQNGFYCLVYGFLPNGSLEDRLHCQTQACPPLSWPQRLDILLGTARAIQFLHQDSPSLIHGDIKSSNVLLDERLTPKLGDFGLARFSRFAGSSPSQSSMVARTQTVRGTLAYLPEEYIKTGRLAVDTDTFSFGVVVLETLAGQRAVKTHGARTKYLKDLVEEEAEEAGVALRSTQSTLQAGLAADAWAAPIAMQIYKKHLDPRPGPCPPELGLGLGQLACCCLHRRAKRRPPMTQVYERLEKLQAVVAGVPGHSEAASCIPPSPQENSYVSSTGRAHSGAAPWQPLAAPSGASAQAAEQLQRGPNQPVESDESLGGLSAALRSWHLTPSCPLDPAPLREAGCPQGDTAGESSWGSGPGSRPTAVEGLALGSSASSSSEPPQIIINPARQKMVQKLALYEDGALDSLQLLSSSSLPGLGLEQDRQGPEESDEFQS

SMILES	pIC50 [1]	pIC50 [2]	Excess HSA (sum excess HSA score, combination with venetoclax) [3]	Concentration needed to decrease the 312.5 nM Venetoclax response to <20% [3] [µM]	Excess HSA (sum excess HSA score, combination with venetoclax) [4]	Concentration of a compound of the disclosure, or gilteritinib, needed to decrease the 62.5 nM Ven response to <10% in MOLM14(D835Y) cells [4] [nM]	pIC50 [5]
COc1cc2ncc(-c3ccnc(N[C@H]4CNCC[C@@H]4F)n3)n2nc1C1CCC1 [Compound 79a, 4-(6-cyclobutyl-7-methoxyimidazo[1,2-b]pyridazin-3-yl)-N-((3S,4S)-4-fluoropiperidin-3-yl)pyrimidin-2-amine]	7.48	7.00	−994.9	5	−1180	25	8.70
COc1cc2ncc(-c3nc(N[C@@H]4CCCNC4)ncc3F)n2nc1C1CC2(CCC2)C1 [Compound 59a, (R)-5-fluoro-4-(7-methoxy-6-(spiro[3.3]heptan-2-yl)imidazo[1,2-b]pyridazin-3-yl)-N-(piperidin-3-yl)pyrimidin-2-amine]	9.15	7.35	−914.4	5	−1911	12.5	8.52
F[C@H]1CCNC[C@@H]1Nc1nccc(-c2cnc3cc(OC4CC4)c(C4CC4)nn23)n1 [Compound 12a, 4-(7-cyclopropoxy-6-cyclopropylimidazo[1,2-b]pyridazin-3-yl)-N-((3S,4S)-4-fluoropiperidin-3-yl)pyrimidin-2-amine]	7.74	7.00	−1770.6140	5	−1236	100	8.22
